Data taken from ChEMBL document CHEMBL1806493, “Synthesis and biological activities of 4-N-(anilinyl-n-[oxazolyl])-7-chloroquinolines (n=3' or 4') against Plasmodium falciparum in in vitro models” (Bioorg Med Chem Lett, 2011).
The source made the active and inactive calls. No cut-off for these calls is given here.

What was measured:
[1] = Toxicity in human mononuclear leukocytes assessed as decrease in cell health at 5 to 500 uM after 5 days by microscopic analysis; assay type: cell-based; details: 120 h
Plasmodium falciparum [2] = experiment: Antiplasmodial activity against chloroquine-sensitive Plasmodium falciparum 3D7A assessed as death of all detectable parasites at 4 days dosage of 0.05 uM using Hema 3 staining by microscopic analysis; assay type: functional, organism-based
Plasmodium falciparum [3] = experiment: Antiplasmodial activity against chloroquine-sensitive Plasmodium falciparum 3D7A assessed as death of all detectable parasites at 4 days dosage of 0.5 to 500 uM using Hema 3 staining by microscopic analysis; assay type: functional, organism-based
Plasmodium falciparum [4] = experiment: Antiplasmodial activity against chloroquine-sensitive Plasmodium falciparum 3D7A assessed as death of all detectable parasites at two days dosage of 0.5 to 500 uM using Hema 3 staining by microscopic analysis; assay type: functional, organism-based
Plasmodium falciparum [5] = experiment: Antiplasmodial activity against chloroquine-sensitive Plasmodium falciparum 3D7A assessed as death of all detectable parasites at two days dosage of 0.05 uM using Hema 3 staining by microscopic analysis; assay type: functional, organism-based
Plasmodium falciparum [6] = experiment: Antiplasmodial activity against chloroquine-resistant Plasmodium falciparum K1 after 48 hrs using Hema 3 staining by microscopic analysis; assay type: functional, organism-based; details: K1, 48 h
Plasmodium falciparum [7] = experiment: Antiplasmodial activity against chloroquine-sensitive Plasmodium falciparum 3D7A assessed as assessed as parasitaemia level at two days dosage of 500 uM using Hema 3 staining by microscopic analysis; assay type: functional
Plasmodium falciparum [8] = experiment: Antiplasmodial activity against chloroquine-sensitive Plasmodium falciparum 3D7 after 48 hrs using Hema 3 staining by microscopic analysis; assay type: functional, organism-based; details: 3D7, 48 h
Plasmodium falciparum [9] = experiment: Antiplasmodial activity against chloroquine-sensitive Plasmodium falciparum 3D7A assessed as assessed as parasitaemia level at 4 days dosage of 500 uM using Hema 3 staining by microscopic analysis; assay type: functional
Plasmodium falciparum [10] = experiment: Antiplasmodial activity against chloroquine-sensitive Plasmodium falciparum 3D7A assessed as parasitaemia level at 4 days dosage of 5 uM using Hema 3 staining by microscopic analysis; assay type: functional
Plasmodium falciparum [11] = experiment: Antiplasmodial activity against chloroquine-sensitive Plasmodium falciparum 3D7A assessed as death of all detectable parasites at 4 days dosage of 50 to 500 uM using Hema 3 staining by microscopic analysis; assay type: functional, organism-based
Plasmodium falciparum [12] = experiment: Antiplasmodial activity against chloroquine-sensitive Plasmodium falciparum 3D7A assessed as parasitaemia level at 4 days dosage of 5 uM measured on day 9 using Hema 3 staining by microscopic analysis; assay type: functional
Plasmodium falciparum [13] = experiment: Antiplasmodial activity against chloroquine-sensitive Plasmodium falciparum 3D7A assessed as death of all detectable parasites at two days dosage of 50 to 500 uM using Hema 3 staining by microscopic analysis; assay type: functional, organism-based
Plasmodium falciparum [14] = experiment: Antiplasmodial activity against chloroquine-sensitive Plasmodium falciparum 3D7A assessed as parasitaemia level at two days dosage of 5 uM measured on day 9 using Hema 3 staining by microscopic analysis; assay type: functional
Plasmodium falciparum [15] = experiment: Antiplasmodial activity against chloroquine-sensitive Plasmodium falciparum 3D7A assessed as undetectable parasitaemia level at 4 days dosage of 5 uM measured on day 3 using Hema 3 staining by microscopic analysis; assay type: functional, organism-based
Plasmodium falciparum [16] = experiment: Antiplasmodial activity against chloroquine-sensitive Plasmodium falciparum 3D7A assessed as parasitaemia level at two days dosage of 5 uM measured on day 2 using Hema 3 staining by microscopic analysis; assay type: functional

SMILES | Activity [1] | IC50 (Plasmodium falciparum [6]) | IC50 (Plasmodium falciparum [8]) | Activity (Plasmodium falciparum [11]) | Activity (Plasmodium falciparum [13]) | also measured
CCN(CC)CCCC(C)Nc1ccnc2cc(Cl)ccc12 (stereo not given) [CHLOROQUINE] | Toxic |  |  |  |  | Activity (Plasmodium falciparum [2]): inactive; Activity (Plasmodium falciparum [3]): Active; Activity (Plasmodium falciparum [4]): Active; Activity (Plasmodium falciparum [5]): inactive
O=C1C(O)=C([C@H]2CC[C@H](c3ccc(Cl)cc3)CC2)C(=O)c2ccccc21 [ATOVAQUONE] |  | 17.7 nM |  |  |  | 
CC1(C)COC(c2ccc(Nc3ccnc4cc(Cl)ccc34)cc2)=N1 |  | > 1000 nM | 308 nM |  |  | Activity (Plasmodium falciparum [7]): 0%; Activity (Plasmodium falciparum [9]): 0%
Clc1ccc2c(Nc3cccc(C4=NCCO4)c3)ccnc2c1 | Toxic | 895 nM | 91 nM | Active | Active | Activity (Plasmodium falciparum [10]): 0%; Activity (Plasmodium falciparum [12]): 5%
Clc1ccc2c(Nc3ccc(C4=NCCO4)cc3)ccnc2c1 | Toxic | 846 nM | 192 nM | Active | Active | Activity (Plasmodium falciparum [14]): 5%; Activity (Plasmodium falciparum [15]): Active; Activity (Plasmodium falciparum [16]): 0.25%
CC1(C)COC(c2cccc(Nc3ccnc4cc(Cl)ccc34)c2)=N1 | Toxic | 711 nM | 83 nM | Active | Active | 
